For one series, the system named is hepatocytes. The conditions noted are these: 50 mM EtOH for 48 hrs.
The subject of another series is CYP related genes. Description: qRT-PCR of CYP related genes in induced hepatocytes after drug treatment. The series is classed as cell-based, mouse. Particulars: iHep; 25 mM 3-Mc, 1 uM Dex or 50 mM ethanol; 72 hrs; versus DMSO control. As to the method: Total RNA was extracted and cDNA was synthesized in the same method as Example 1. qRT-PCR was performed using synthesized cDNA. mRNA expression of specific genes was confirmed using SYBR Green I Master (Roche, 04887352001) and primers in LightCycler® 480 equipment. The average value was calculated for three analyzes and normalized using Gapdh (5′-[…]-3′ (SEQ ID NO: 94) and 5′-[…]-3′ (SEQ ID NO: 95)). The expression level of mRNA was compared using comparative Ct method. Primer sequences used in qRT-PCR were shown below (sequences below were represented in the 5′ to 3′ direction).
The CYP family members were known to be regulated by aryl hydrocarbon receptor (AhR), constitutive androstane receptor (CAR), pregnane X receptor (PXR), and nuclear receptor which were abundantly found in liver tissue. In order to confirm whether hepatocytes induce CYP when a stimulus was given to such receptors, chemical compounds such as 3-methylcholanthrene (3Mc) which acts on aryl hydrocarbon receptors (Cyp1 family members) and glucocorticoid (Dex, dexamethasone) which acts on glucocorticoid receptors (glucocorticoid receptor regulating CAR and PXR is upstream of Cyp2/3 family members) were treated to receptors.
Specifically, cells were cultured with 60% confluency in HEP medium in which dexamethasone was not added. […]
For orientation: Quantitative PCR measures a nucleic acid by following its amplification.

`CCO` [ethanol]: the “accumulation of fats and droplets in cytoplasm of hepatocytes” value in the series with hepatocytes is given as “accumulation of fats”.

On to `Cc1ccc2cc3c(ccc4ccccc43)c3c2c1CC3` [3-methylcholanthrene], for which the “expression of CYP family genes (mRNA)” value with CYP related genes is “induced”.

The values are drawn from patent US11732240B2, “Direct conversion method of somatic cell into Hepatic stem cell, hepatic cell, or cholangiocyte” (UNIST(ULSAN NATIONAL INSTITUTE OF SCIENCE AND TECHNOLOGY), priority 2016, dated 2023).
